Data set [1] can be described thus: CellTiter-Glo luminescent cell viability assay (ATP), H27. Type of data set: cell-based, human. The following applies: human; H27 cells, 48 h, ATP luminescence; read-out: Cytotoxicity IC50 H27. Here is the method:
(§1) The number of viable cells based on ATP quantification was determined using the CellTiter-Glo® luminescent cell viability assay (Promega, Madison, WI, USA, lot no. 0000200446). Briefly, cells were seeded into white, flat-bottomed, sterile 96-well plates (PerkinElmer, Beaconsfield, UK) and incubated for 24 h. For A-375 cells, we used 10,000 cells/well, and for H27 cells, we used 7500 cells/well. Test compounds were diluted in assay medium (Glutamax DMEM with 5% FBS (Gibco)) and added to the plates in two-fold dilutions starting at 100 µM. Negative controls (0.5% DMSO) and positive controls (camptothecin, 1.6 µM for the A-375 cells and 50 µM for the H27 cells) were also included, and the plates were incubated for an additional 48 h (95% humidity, 5% CO2 at 37 °C). After incubation, the cells were washed with PBS. To each well, we then added 50 µL of assay medium plus 50 µL of CellTiter-Glo® reagent. The samples were then shaken for 2 min at 100 rpm at 25 °C, followed by a further 10 min at 25 °C to stabilize the luminescence signal. Luminescence was measured using a VarioSkan LUX multimode microplate reader (Thermo Fisher Scientific, Vantaa, Finland).
In general terms: Cellular ATP, detected with luciferase, serves as a proxy for viable cell number.

In a further data set the test system is H27 cells. Described as above. The class given is cell-based, human. The following applies: IC50 cytotoxicity/IC50 P. aeruginosa growth inhibition in M9 acetate. The protocol: as §1
The target of the next data set is T1, CYP2C19 (Homo sapiens, UniProt P33261).
T1 construct: pooled human liver microsomes; tissue BioIVT; host or cells: pooled human liver microsomes
T1 sequence (P33261 whole entry): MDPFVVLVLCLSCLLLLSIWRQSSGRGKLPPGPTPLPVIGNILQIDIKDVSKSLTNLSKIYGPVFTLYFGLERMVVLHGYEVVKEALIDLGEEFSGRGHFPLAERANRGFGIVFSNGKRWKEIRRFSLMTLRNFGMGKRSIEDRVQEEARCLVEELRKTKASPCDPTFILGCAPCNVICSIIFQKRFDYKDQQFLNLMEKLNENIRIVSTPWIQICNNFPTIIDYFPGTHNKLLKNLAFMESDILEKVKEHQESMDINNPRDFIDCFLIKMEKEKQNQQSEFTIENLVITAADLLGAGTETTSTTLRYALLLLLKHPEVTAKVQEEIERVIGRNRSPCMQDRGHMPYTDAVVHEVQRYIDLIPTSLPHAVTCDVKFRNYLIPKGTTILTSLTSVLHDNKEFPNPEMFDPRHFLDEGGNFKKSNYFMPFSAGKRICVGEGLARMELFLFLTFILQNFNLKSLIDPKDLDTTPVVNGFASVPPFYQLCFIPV
Description: CYP450 inhibition in HLM, mephenytoin probe. Type of data set: in vitro ADME. Here is the method:
The CYP450 inhibition was determined by measuring the reaction products of known CYP450 substrates (probes). […] These probe solutions were dispensed (195 µL) into clear 96-well plates with low evaporation lids (Corning, Turin, Italy) and the plates were prewarmed to 37 °C in a thermomixer (Hamilton, Agrate Brianza, Italy). Next, 5 µL of the test compound or appropriate positive control (Table S4) were added to the wells and the plates were incubated for a further 5 min. Following this, the reactions were started by adding NADPH regenerating solution (50 µL, see previous Section 4.7) to each well. CYP450 mixtures containing phenacetin, rosiglitazone, mephenytoin, atorvastatin, and nifedipine probes were incubated for 10 min at 37 °C, whereas those with midazolam and diclofenac were incubated for 5 min at 37 °C. […]
Probe products were analyzed on an API4000 Qtrap mass spectrometer (Applied Biosystems/MDS SCIEX, Monza, Italy) coupled with an Acquity UPLC system (Waters, Milan, Italy) and a CTC-PAL auto-injector (CTC Analytics AG, Zwingen, Switzerland). […] The analytes were quantified in multiple reaction-monitoring mode. Data were processed, and the percentage control activity was calculated based on a comparison between the ratio of the sample peak area and the peak area.

The target in data set [2] is T2, ICLPa (Pseudomonas aeruginosa, UniProt Q9I0K4).
T2 sequence (Q9I0K4 1-531): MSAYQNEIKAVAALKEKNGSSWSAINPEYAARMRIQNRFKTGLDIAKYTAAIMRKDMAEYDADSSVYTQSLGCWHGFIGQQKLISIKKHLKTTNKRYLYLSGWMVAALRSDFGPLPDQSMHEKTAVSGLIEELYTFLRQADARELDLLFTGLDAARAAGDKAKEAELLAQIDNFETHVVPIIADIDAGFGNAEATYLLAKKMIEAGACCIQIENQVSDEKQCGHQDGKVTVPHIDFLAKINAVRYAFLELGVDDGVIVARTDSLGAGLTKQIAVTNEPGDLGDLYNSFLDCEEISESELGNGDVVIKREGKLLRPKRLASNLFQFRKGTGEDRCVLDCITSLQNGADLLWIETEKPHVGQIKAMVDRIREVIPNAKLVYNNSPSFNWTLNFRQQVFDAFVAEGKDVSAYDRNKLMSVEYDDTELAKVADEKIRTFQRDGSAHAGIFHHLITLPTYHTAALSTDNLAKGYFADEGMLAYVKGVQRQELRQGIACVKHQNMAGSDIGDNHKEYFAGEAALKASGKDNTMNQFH
Description: Kinetic mode of action on ICLPa. The class given is biochemical. Also noted: made in house. Conditions: isocitrate titrated; uncompetitive model, GraphPad Prism. The protocol: The enzymatic activity of purified ICLPa and MSPa was assayed essentially as previously described. Compounds were added to the reaction mixtures (minus substrates) and incubated for 5 min at 37 °C. The enzyme concentration in the reaction mixtures was 170 nM for ICL and 25 nM for MS (based on the concentration of the monomer in each case). […] The reactions were initiated by the addition of pH-adjusted substrates, and the initial rates were recorded as A324 nm (for ICLPa) and A412 nm (for MSPa) using a Biospectrometer (Eppendorf, Stevenage, UK). Substrate turnover was calculated from the molar extinction coefficient of the assay products: Glyoxylate-phenylhydrazone (16,800/M/cm) for ICLPa and 2-nitro-5-thiobenzoic acid (14,150/M/cm) for MSPa.
The mode of action of SB002 on MSPa and ICLPa was determined by titrating the respective substrates of each enzyme in the presence of three fixed concentrations of SB002 (selected to lie around the measured IC50 value) and measuring the reaction rates as outlined in Section 4.3. Double-reciprocal plots and best-fit inhibition models (GraphPad Prism v. 7.04) were used to assess the mode of inhibition. Inhibition constants were calculated using GraphPad Prism v. 7.04 (GraphPad Software, Inc., La Jolla, CA, USA). Each data point represents the mean ± SD for three independent replicates.

In another data set the target is MSPa (Pseudomonas aeruginosa, UniProt Q9I636). As to the kind of experiment: Isothermal titration calorimetry, MSPa.
Sequence of MSPa (Q9I636 whole entry): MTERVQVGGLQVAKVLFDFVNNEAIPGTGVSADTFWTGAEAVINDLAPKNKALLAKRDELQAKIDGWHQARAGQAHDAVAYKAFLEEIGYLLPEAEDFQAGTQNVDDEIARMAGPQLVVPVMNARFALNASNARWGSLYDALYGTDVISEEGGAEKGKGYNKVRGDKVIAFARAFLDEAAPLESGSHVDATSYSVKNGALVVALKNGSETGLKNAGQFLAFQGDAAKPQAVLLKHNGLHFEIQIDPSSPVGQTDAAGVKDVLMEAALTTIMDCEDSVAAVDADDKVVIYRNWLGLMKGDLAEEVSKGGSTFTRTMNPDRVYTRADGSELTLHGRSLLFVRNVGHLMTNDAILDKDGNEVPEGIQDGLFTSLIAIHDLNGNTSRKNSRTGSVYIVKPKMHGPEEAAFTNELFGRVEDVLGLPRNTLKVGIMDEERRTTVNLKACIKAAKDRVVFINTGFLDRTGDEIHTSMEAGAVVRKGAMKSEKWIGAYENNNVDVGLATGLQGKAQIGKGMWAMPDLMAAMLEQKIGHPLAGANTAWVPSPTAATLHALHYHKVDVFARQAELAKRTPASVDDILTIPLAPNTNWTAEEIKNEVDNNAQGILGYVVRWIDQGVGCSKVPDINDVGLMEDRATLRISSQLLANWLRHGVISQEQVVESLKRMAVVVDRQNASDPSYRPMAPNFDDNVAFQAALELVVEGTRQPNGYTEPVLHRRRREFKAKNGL
Data set [3] has as its target T2, ICLPa. As to the kind of experiment: Isothermal titration calorimetry, ICLPa. Conditions: ITC. On the technique in general: Isothermal titration calorimetry measures the heat released or taken up as one component is titrated into another.
Description: (§2) Protein samples were dialyzed (2 × 1 L) in a D-tube dialyzer (Merck, Watford, UK) for 3 h in 25 mM Tris-HCl, 100 mM NaCl, and 0.1 mM TCEP (pH 7.5). […] The syringe and the cell both contained a final concentration of 0.1% DMSO. The injection parameters for MSPa were: Reference power 15 µcal/sec, initial injection of 3 µL (3.6 sec per injection) with subsequent injections of 10 µL (12 sec per injection). Injections were spaced by 150 sec with a filter period of 2 sec. The injection parameters for ICLPa were: Reference power 15 µcal/sec, initial injection of 3 µL (3.6 sec per injection) with subsequent injections of 8 µL (10 sec per injection). Injections were spaced by 170 sec with a filter period of 2 sec. Data were analyzed in NITPIC (NITPIC, Bethesda, MD, USA) [31] for baseline calculations and then fit for thermodynamic parameters using the OneSite model in Origin 7.0 software (Origin Software Solutions, Bristol, UK). Each titration was carried out in duplicate.
Where [4] appears, read: ITC, 25 °C, reverse titration, MSPa.
[5] abbreviates: 25 °C, reverse titration, ICLPa.

Consider two compounds from paper PMC7177833, “2-Aminopyridine Analogs Inhibit Both Enzymes of the Glyoxylate Shunt in Pseudomonas aeruginosa” (International Journal of Molecular Sciences, 2020).

“And” between values parts separate entries of the source, which are not always exact repeats. Identical values can stand only once.

In general, IC50 refers to the concentration that gives 50% inhibition. A word on the Kd: it is the concentration at which binding is half-saturated.

Description for MSPa: as §2

As for `CC(C)(C)OC(=O)/N=C(\NC(=O)OC(C)(C)C)Nc1cc(C#N)ccn1` [SB023], the IC50 at 48 h in data set [1] was determined as 205 µM. Moreover, in the data set on H27 cells, the “Therapeutic index H27” value came to 23.27.

As to `CC(C)(C)OC(=O)/N=C(\NC(=O)OC(C)(C)C)Nc1cc(Cl)ccn1` [SB002], the IC50 at 48 h in data set [1] turned out to be 98.4 µM. In the data set with H27 cells, the “Therapeutic index H27” value was 93 and 93.73. Moreover, the “IC50 CYP450 2C19” value against CYP2C19 is reported as “some evidence of interacting with the turnover of mephenytoin”. In addition, on CYP2C19 (read-out: IC50 CYP450 2C19), the IC50 came out at 126 µM. For the same compound, at ICLPa [2], the “Ki’ (inhibition constant for binding to the enzyme-substrate complex), ICLPa” value came out at 21.3 µM. Besides, at MSPa, the Kd was found to be 0.0286 ± 0.0016 µM. Further, on MSPa (setting [4]), the Ka turned out to be 3.56e+07 ± 1.86e+06 M, the ΔG is −10.31 ± 1.79×10^−3 kcal/mol, the ΔH was −0.47 ± 1.79×10^−3 kcal/mol and the “−TΔS” value was -9.84 kcal/mol. In addition, the “n (binding sites)” value on MSPa (ITC, per monomeric unit of MSPa) was 0.35 and 0.35 ± 8.41 × 10^−4. At ICLPa [3] (setting [5]), the Ka amounted to 718000 ± 149000 M, the Kd came to 1.43 µM, the ΔG is reported as −7.98 ± 3.44×10^−1 kcal/mol and the ΔH is reported as −4.22 ± 3.44×10^−1 kcal/mol. On ICLPa [3] (setting [5]), the “−TΔS” value was -3.76 kcal/mol. Besides, the “n (binding sites)” value at ICLPa [3] (per monomeric unit of ICLPa) is 0.53 and 0.53 ± 3.25 × 10^−2.
